Assays:
[1] = tested on: CCK and gastrin receptors; assay: Binding to both CCK and gastrin receptors (summary statement); details: summary in words
Description: Biological activity of virginiamycin M1 and the compounds of Formulae I, II, III and IV is determined by gastrin receptor binding, pancreas CCK receptor binding, brain CCK binding and microbial growth inhibition assays.

[2] = biological target: T1, Brain CCK Receptor (Cavia porcellus, UniProt H0VZC5); assay: Brain Cholecystokinin Receptor Binding Assay (cerebral cortex); details: guinea pig cerebral cortex, 125I-CCK-8, 25° C., 2 hours
T1 construct: The cerebral cortex was dissected and used as a receptor source; from tissue; host or cells: cerebral cortex membranes of male Hartley guinea pigs
T1 sequence (H0VZC5 1-426): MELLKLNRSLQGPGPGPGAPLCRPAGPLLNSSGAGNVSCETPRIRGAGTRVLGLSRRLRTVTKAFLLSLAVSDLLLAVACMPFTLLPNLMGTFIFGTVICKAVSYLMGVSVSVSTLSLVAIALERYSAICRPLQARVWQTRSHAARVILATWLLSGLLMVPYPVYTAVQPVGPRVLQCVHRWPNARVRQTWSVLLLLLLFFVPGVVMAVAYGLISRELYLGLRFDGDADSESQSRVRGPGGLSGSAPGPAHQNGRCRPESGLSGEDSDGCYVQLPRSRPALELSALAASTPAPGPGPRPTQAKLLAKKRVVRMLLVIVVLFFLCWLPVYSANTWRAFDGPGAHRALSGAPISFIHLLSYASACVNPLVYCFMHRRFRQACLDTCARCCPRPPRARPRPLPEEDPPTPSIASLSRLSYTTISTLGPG
Description: CCK-8 binding was performed according to the description for the pancreatic method, with modifications by Saito et al., J. Neurochem., 37, 483 (1981).
The brains from male Hartley guinea pigs (300-500 g) were removed and placed in ice-cold 50 mM Tris HCl plus 7.58 g/L Trizma-7.4 [pH 7.4 at 25° C.]. The cerebral cortex was dissected and used as a receptor source and each gram of fresh guinea pig brain tissue was homogenized in 10 ml of Tris/Trizma buffer, pH 7.4, with a Brinkmann polytron PT-10. The homogenates were centrifuged at 42,000×g for 15 minutes, then the resulting pellets were resuspended in 200 volumes of binding assay buffer (10 mM N-2-hydroxy-ethyl-piperazine-N'-2-ethane-sulfonic acid (HEPES), pH 7.7 at 25° C., MgCl2, 1 mM ethylene glycol-bis-(β-amino-ethyl-ether-N,N'-tetraacetic acid (EGTA), 0.4% BSA and 0.25 mg/ml bacitracin, pH 6.5).
The remainder of the binding assay method was as described for the pancreatic method, Example 6, except that the reaction mixtures were incubated at 25° C. for 2 hours before filtration and the filters were washed with HEPES buffer.

[3] = tested on: gram-positive bacteria; details: cited from earlier work
[4] = C-terminal octapeptide vs CCK-33; cited from earlier work
[5] = tested on: gastric acid secretion; details: cited from earlier work

Compound	binding to CCK and gastrin receptors [1]	IC50 [2] [nM]	also measured
CC1=C\C=C\C(=O)Cc2nc(co2)C(=O)N2CCC=C2C(=O)O[C@H](C(C)C)[C@H](C)/C=C/C(=O)NC\C=C\1 [Compound III]	bind to both CCK and gastrin receptors	13.3	
CC1=C\C=C\[C@H](O)Cc2nc(co2)C(=O)N2CCC=C2C(=O)O[C@H](C(C)C)[C@H](C)/C=C/C(=O)NC\C=C\1 [Compound II]	bind to both CCK and gastrin receptors	6.1	
CC1=C\C=C\[C@@H](O)Cc2nc(co2)C(=O)N2CCC=C2C(=O)O[C@H](C(C)C)[C@H](C)/C=C/C(=O)NC\C=C\1 [Compound I]	bind to both CCK and gastrin receptors	7.8	
CC1=C\CCC(=O)Cc2nc(co2)C(=O)N2CCC=C2C(=O)O[C@H](C(C)C)[C@H](C)/C=C/C(=O)NC\C=C\1 [IV]	bind to both CCK and gastrin receptors	270	
CC1=C\[C@@H](O)CC(=O)Cc2nc(co2)C(=O)N2CCC=C2C(=O)O[C@H](C(C)C)[C@H](C)/C=C/C(=O)NC\C=C\1 [Virginiamycin M1]	bind to both CCK and gastrin receptors	571	antibacterial specificity [3]: generally specific for gram-positive bacteria and prevent cell multiplication
C-terminal octapeptide: C-terminal octapeptide has the same efficacy as CCK-33			efficacy relative to CCK-33 [4]: same efficacy as CCK-33; potency relative to CCK-33 [4]: approximately ten
Gastrin-17: 17-amino acid form of gastrin, C-terminal fragment of the 34-amino acid form			potency relative to Gastrin-13 ([5]; Gastrin-17 vs Gastrin-13): 2.5 times; potency relative to Gastrin-34 ([5]; Gastrin-17 vs Gastrin-34): 5 times
